Like-named read-outs stand apart in the source and are kept apart here.
Tests used:
[1] = tested on: Kornkäfer (sitophilus granarius L); experiment: whole plant or invertebrate; type: in vivo; settings: for % Wirkung Substanz +Ripcord / % Wirkung Substanz +Talcord: 180 min
In short: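 Acetone solutions (2 ml) were dried as films in 15 cm Petri dishes and 25 grain weevils added per dish, with a filter inserted after 1 h. Dead beetles were counted at 3 h at 19–21 °C, and % mortality and the synergistic factor were derived.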

[2] = Acute oral toxicity, single oral application, 14 day LD50; design: species or system SPF-Wistar-Ratten; settings: rat, in vivo, read-out: 14 Tage LD50
From the text: Die erfindungsgemäßen Verbindungen haben nur eine geringe Toxizität. Es wurde die akute, orale Toxizität von Phenyl-N-piperidino-essigsäure-ethylester und 1-N-Undecyl-piperidin bestimmt. Die Tests wurden mit SPF-Wistar-Ratten durchgeführt und die Wirkstoffe einmal oral appliziert.

Drosophila melanogaster = experiment: whole plant or invertebrate; type: in vivo; settings: for Faktor der Wirkungssteigerung bei Dimi-tilan: amine 0,05 % + Dimetilan 0,0001 %
From the text: Die insektiziden Wirkungen von tertiären heterocyclischen Aminen und die synergistischen Eigenschaften mit dem Phosphorsäureester Dimethoat und dem Carbamat Dimetilan, getestet an Drosophila melanogaster.
Die Versuche wurden in Petrischalen von 10 cm Durchmesser ausgeführt. Es wurden zunächst die gerade noch wirksamen Konzentrationen von Dimethoat und Dimetilan bestimmt. Für Dimethoat wurde 0,005 % und für Dimetilan 0,0001 % als günstige Versuchskonzentration ermittelt. Die Aminkomponente wurde mit 1 ml 0,05%iger Lösung + 1 ml Aceton auf insektizide Wirkung getestet. Zur Bestimmung des Synergismus wurde 1 ml 0,05%ige Aminlösung + 1 ml 0,005.%ige Dimethoatlösung, bzw. + 1 ml 0,0001%ige Dimetilanlösung pro Petrischale eingesetzt. Alle Verdünnungen wurden mit Aceton als Lösungsmittel hergestellt.
In den Petrischalen wurden die Lösungen am Boden gut verteilt und 30 min lang antrocknen lassen. In jede Petrischale wurden 20 mit Kohlendioxid betäubte Drosophila eingezählt. Alle 5 min, insgesamt 12 mal, wurde die Anzahl der toten Drosophila ausgezählt und notiert. Die Zahlen wurden aufsummiert und im Verhältnis zur möglichen Zahl an toten Drosophila in % angegeben, wobei der Tot aller Drosophila innerhalb der ersten 5 min 100 % Wirkung entspricht. Jeder Versuch wurde mit 3 Wiederholungen durchgeführt. In Tabelle 1 sind die Mittelwerte der Ergebnisse zusammengestellt.
Zur Ermittlung des synergistischen Faktors wurden die Einzelwerte pro Zeiteinheit durch die für Dimethoat, bzw. Dimetilan für die jeweilige Zeiteinheit gefundenen Werte dividiert. Die Werte für jede Zeiteinheit wurden summiert und durch die Anzahl der Zeiteinheiten dividiert. Die Versuche wurden bei sonst stets gleichbleibenden Bedingungen bei Temperaturen von 20 - 22°C ausgeführt. Die Kontrollversuche zeigten bei Versuchsabschluß stets 0 % Mortalität. Hat die Substanz selbst eine insektizide Wirkung, so wurden die Wirkungsfaktoren für Dimethoat und Dimetilan nach Abzug des Substanzwertes berechnet und in der Tabelle aufgeführt.
Im Beispiel 1 war das Verhältnis von Insektizid und erfindungsgemäßem Amin 1 : 10 in den Gemischen mit Dimethoat. In der Tabelle 2 sind Verhältnisse von 1 : 1, 1 : 2 und 1 : 0,2 bei Versuchen mit Dimethoat aufgeführt, dabei wurde das Dimethoat immer in einer Konzentation von 0,005 % eingesetzt. Die Tabelle zeigt, daß auch bei diesen Verhältnissen noch eine gute synergistische Wirkung vorhanden ist, und es keineswegs einer großen überdosierung des Amins bedarf.

[3] = Pyrethroid : Amin 1 : 5, amine 0,05 mg/ml
[4] = Pyrethroid : Amin 1 : 10, amine 0,1 mg/ml
[5] = 1 ml 0,05%ige amine solution + 1 ml 0,0001%ige Dimetilan solution
[6] = 1 ml 0,05%ige amine solution + 1 ml 0,005 %ige Dimethoat solution (Dimethoat : amine 1 : 10)
[7] = 1 ml 0,05%ige amine solution + 1 ml Aceton per dish, 20 flies, dead counted every 5 min, 12 times, mean values
[8] = calculated after subtracting the amine's own effect
[9] = amine 1 mg/ml + Ripcord 0,01 mg/ml
[10] = amine 1 mg/ml + Talcord 0,01 mg/ml
[11] = amine 1 mg/ml in Aceton mixed 1 : 1 with Aceton, 2 ml per dish, 25 weevils, dead counted after 3 h
[12] = amine 1 mg/ml mixed 1 : 1 with Ripcord 0,01 mg/ml, 3 h
[13] = amine 1 mg/ml mixed 1 : 1 with Talcord 0,01 mg/ml, 3 h
[14] = drosophila melanogaster, in vivo
[15] = sitophilus granarius, in vivo, 3 h
[16] = amine 0,05 % + Dimethoat 0,005 %, calculated after subtracting the amine's own effect

Row | SMILES | Wirksamkeit in % Substanz +Dimeti-lan (Drosophila melanogaster; [5]) | Wirksamkeit in % Substanz +Dimethoat (Drosophila melanogaster; [6]) | Wirksamkeit in % Substanz allein (Drosophila melanogaster; [7]) | Faktor der Wirkungssteigerung bei Dimi-tilan (Drosophila melanogaster; [8]) | Synergistischer Faktor bei Ripcord [1, 9] | Synergistischer Faktor bei Talcord [1, 10] | Wirksamkeit in % Substanz allein [1, 11] | Wirksamkeit in % Substanz +Ripcord [1, 12] | Wirksamkeit in % Substanz +Talcord [1, 13] | Faktor der Wirkungssteigerung bei Dime-methoat (Drosophila melanogaster; [16]) | further results
1 | CCCCCCCCCCCN1CCCCC1 [N-1-Undecyl-piperidin] |  |  |  |  |  |  |  |  |  |  | % Wirkung Substanz +Ripcord [1, 3]: 90,8%; % Wirkung Substanz +Talcord [1, 3]: 53,2%; % Wirkung Substanz +Ripcord [1, 4]: 97,2%; % Wirkung Substanz +Talcord [1, 4]: 60,0%; mortality at 100 µg/mL ([1]; Sitophilus granarius, 3 h, amine 0,1 mg/ml (as for Pyrethroid : Amin 1 : 10), read-out: % Wirkung Substanz allein): 0%; mortality at 50 µg/mL ([1]; Sitophilus granarius, 3 h, amine 0,05 mg/ml (as for Pyrethroid : Amin 1 : 5), read-out: % Wirkung Substanz allein): 0%; LD50 at 336 h ([2]; männliche Ratten): 593 mg/kg; LD50 at 336 h ([2]; weibliche Ratten): 493 mg/kg
2 | c1ccc(OCCCN2CCCCC2)cc1 [N-(1-Phenoxi-propyl-(3))-piperidin] | 12,1% | 8,8% | 0% | 4,8 | 2,96 | 3,01 | 0% | 93,2% | 29,2% |  | 
3 | CCCCOCCOCCN1CCOCC1 [N-(2'-Butoxi-diethylether-(2))-morpholin] |  |  |  |  |  |  |  |  |  |  | Wirksamkeit in % Substanz +Dimethoat (Drosophila melanogaster; [14]): 12,9%; Wirksamkeit in % Substanz +Dimeti-lan (Drosophila melanogaster; [14]): 3,5%; Wirksamkeit in % Substanz allein (Drosophila melanogaster; [14]): 1,7%; Faktor der Wirkungssteigerung bei Dime-methoat (Drosophila melanogaster; in vivo): 1,30; Synergistischer Faktor bei Ripcord ([1]; in vivo): 2,96; Synergistischer Faktor bei Talcord ([1]; in vivo): 8,12; Wirksamkeit in % Substanz +Ripcord [1, 15]: 93,2%; Wirksamkeit in % Substanz +Talcord [1, 15]: 78,8%; Wirksamkeit in % Substanz allein [1, 15]: 0%
4 | CCCCOCCOCCOCCN1CCCC1 [N-(a-Butyl-triethylen-tri-ether-(w))-pyrrolidin] | 1,7% | 23,3% | 0% |  | 3,05 | 1,24 | 0% | 96,0% | 13,2% | 2,97 | 
5 | C(=Cc1ccccc1)CN1CCCCC1 [N-Cinnamyl-piperidin] | 82,5% | 77,1% |  | 6,48 | 3,08 | 7,01 |  | 97,2% | 68,0% | 1,25 | mortality at 0.05 % (Drosophila melanogaster; Drosophila melanogaster, 1 ml 0,05%ige amine solution + 1 ml Aceton per dish, 20 flies, dead counted every 5 min, 12 times, mean values, read-out: Wirksamkeit in % Substanz allein): 66.3%; mortality at 1000 µg/mL ([1]; Sitophilus granarius, amine 1 mg/ml in Aceton mixed 1 : 1 with Aceton, 2 ml per dish, 25 weevils, dead counted after 3 h, read-out: Wirksamkeit in % Substanz allein): 0%
